Experimental data: BindingDB's records for doi:10.1021/acs.jnatprod.8b00574 (Institute of Medicinal and Aromatic Plants, 2018)

Assays:
[1] = Inhibition of thrombin in human washed platelets assessed as reduction in thrombin-induced platelet aggregation after 5 mins
[2] = Inhibition of thrombin in human platelet rich plasma assessed as reduction in arachidonic acid-induced platelet aggregation after 5 mins
[3] = Inhibition of thrombin in human platelet rich plasma assessed as reduction in ADP-induced platelet aggregation after 5 mins
[4] = Inhibition of thrombin in human platelet rich plasma assessed as reduction in thrombin-induced platelet aggregation after 5 mins

CC[C@H](CC[C@@H](C)[C@H]1CC[C@H]2[C@@H]3CC=C4C[C@@H](O)CC[C@]4(C)[C@H]3CC[C@]12C)C(C)C [stigmast-5-en-3beta-ol]
IC50 [1]: 9.2 µM | IC50 [2]: 1500 µM | IC50 [3]: 1500 µM | IC50 [4]: 10.5 µM
